Legend:
Type in all cases: in vivo
[1] = system: Italian ryegrass (Lolium multiflorum); assay: Test A preemergence, visual injury rating
Method in brief: (§1)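 Compounds in non-phytotoxic solvent with surfactant applied as soil spray preemergence, or postemergence to plants 2-10 cm at one- to two-leaf stage, in loam/sand. After approximately 10 days in greenhouse, injury rated visually versus untreated controls, 0 (no effect) to 100 (complete control).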

[2] = system: barnyardgrass (Echinochloa crus-galli); assay: Test A preemergence, visual injury rating
Method in brief: as §1

[3] = system: giant foxtail (Setaria faberii); assay: Test A preemergence, visual injury rating
Method in brief: as §1

[4] = system: kochia (Kochia scoparia); assay: Test A preemergence, visual injury rating
Method in brief: as §1

[5] = system: pigweed (Amaranthus retroflexus); assay: Test A preemergence, visual injury rating
Method in brief: as §1

[6] = system: ragweed (common ragweed, Ambrosia elatior); assay: Test A preemergence, visual injury rating
Method in brief: as §1

[7] = system: Italian ryegrass (Lolium multiflorum); assay: Test A postemergence, visual injury rating; settings: 0 to 100 scale, 0 is no effect, 100 is complete control, approximately 10 days
Method in brief: as §1

[8] = system: barnyardgrass (Echinochloa crus-galli); assay: Test A postemergence, visual injury rating; settings: 0 to 100 scale, 0 is no effect, 100 is complete control, approximately 10 days
Method in brief: as §1

[9] = system: blackgrass (Alopecurus myosuroides); assay: Test A postemergence, visual injury rating; settings: 0 to 100 scale, 0 is no effect, 100 is complete control, approximately 10 days
Method in brief: as §1

[10] = system: corn (Zea mays); assay: Test A postemergence, visual injury rating; settings: 0 to 100 scale, 0 is no effect, 100 is complete control, approximately 10 days
Method in brief: as §1

[11] = system: galium (catchweed bedstraw, Galium aparine); assay: Test A postemergence, visual injury rating; settings: 0 to 100 scale, 0 is no effect, 100 is complete control, approximately 10 days
Method in brief: as §1

[12] = system: giant foxtail (Setaria faberii); assay: Test A postemergence, visual injury rating; settings: 0 to 100 scale, 0 is no effect, 100 is complete control, approximately 10 days
Method in brief: as §1

[13] = system: kochia (Kochia scoparia); assay: Test A postemergence, visual injury rating; settings: 0 to 100 scale, 0 is no effect, 100 is complete control, approximately 10 days
Method in brief: as §1

[14] = system: pigweed (Amaranthus retroflexus); assay: Test A postemergence, visual injury rating; settings: 0 to 100 scale, 0 is no effect, 100 is complete control, approximately 10 days
Method in brief: as §1

[15] = system: ragweed (common ragweed, Ambrosia elatior); assay: Test A postemergence, visual injury rating; settings: 0 to 100 scale, 0 is no effect, 100 is complete control, approximately 10 days
Method in brief: as §1

[16] = system: wheat (Triticum aestivum); assay: Test A postemergence, visual injury rating; settings: 0 to 100 scale, 0 is no effect, 100 is complete control, approximately 10 days
Method in brief: as §1

[17] = system: barnyardgrass (Echinochloa crus-galli); assay: Test B flooded paddy test, plant response rating; settings: 250 g ai/ha; Flood; scale of 0 to 100 where 0 is no effect and 100 is complete control; 13 to 15 days
Method in brief: (§2)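 Ratings were visual and made relative to untreated controls after 13 to 15 greenhouse days.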

[18] = system: ducksalad (Heteranthera limosa); assay: Test B flooded paddy test, plant response rating; settings: 250 g ai/ha; Flood; scale of 0 to 100 where 0 is no effect and 100 is complete control; 13 to 15 days
Method in brief: as §2

[19] = system: rice (Oryza sativa); assay: Test B flooded paddy test, plant response rating; settings: 250 g ai/ha; Flood; scale of 0 to 100 where 0 is no effect and 100 is complete control; 13 to 15 days
Method in brief: as §2

[20] = system: sedge, umbrella (small-flower umbrella sedge, Cyperus difformis); assay: Test B flooded paddy test, plant response rating; settings: 250 g ai/ha; Flood; scale of 0 to 100 where 0 is no effect and 100 is complete control; 13 to 15 days
Method in brief: as §2

[21] = 31 g ai/ha, 0 to 100 scale, 0 no effect, 100 complete control
[22] = 125 g ai/ha, 0 to 100 scale (0 no effect, 100 complete control)

SMILES	Plant response rating, Ryegrass, Italian [1, 21]	Plant response rating, Ryegrass, Italian [1, 22]	Plant response rating, Barnyardgrass [2, 21]	Plant response rating, Foxtail, Giant [3, 21]	Plant response rating, Foxtail, Giant [3, 22]	Plant response rating, Kochia [4, 21]	Plant response rating, Kochia [4, 22]	Plant response rating, Pigweed [5, 21]	Plant response rating, Pigweed [5, 22]	Plant response rating, Ragweed [6, 21]	Plant response rating, Ragweed [6, 22]	Ryegrass, Italian plant response rating ([7]; 31 g ai/ha)	Ryegrass, Italian plant response rating ([7]; 125 g ai/ha)	Barnyardgrass plant response rating ([8]; 31 g ai/ha)	Barnyardgrass plant response rating ([8]; 125 g ai/ha)	Blackgrass plant response rating ([9]; 31 g ai/ha)	Blackgrass plant response rating ([9]; 125 g ai/ha)	Corn plant response rating ([10]; 31 g ai/ha)	Corn plant response rating ([10]; 125 g ai/ha)	Galium plant response rating ([11]; 31 g ai/ha)	further results
CC(=NOC(C)C)c1c(Br)cccc1Oc1ncc(Cl)cn1 [Compound 105]	0	0	0	0	20	0	0	0	20	0	0	0	0	0	0	0	10	0	0	10	Barnyardgrass plant response rating [2, 22]: 30; Galium plant response rating ([11]; 125 g ai/ha): 20; Foxtail, Giant plant response rating ([12]; 31 g ai/ha): 0; Foxtail, Giant plant response rating ([12]; 125 g ai/ha): 0; Kochia plant response rating ([13]; 31 g ai/ha): 0; Kochia plant response rating ([13]; 125 g ai/ha): 10; Pigweed plant response rating ([14]; 31 g ai/ha): 10; Pigweed plant response rating ([14]; 125 g ai/ha): 30; Ragweed plant response rating ([15]; 31 g ai/ha): 0; Ragweed plant response rating ([15]; 125 g ai/ha): 0; Wheat plant response rating ([16]; 31 g ai/ha): 0; Wheat plant response rating ([16]; 125 g ai/ha): 0; Plant response rating, Barnyardgrass [17]: 0; Plant response rating, Ducksalad [18]: 40; Plant response rating, Rice [19]: 0; Plant response rating, Sedge, Umbrella [20]: 0
C#CCOC(=O)c1c(Br)cccc1Oc1ncc(Cl)cn1 [Compound 108]	0	0	10	10	80	0	10	0	70	0	0	0	0	0	10	0	0	10	20	20	Barnyardgrass plant response rating [2, 22]: 30; Galium plant response rating ([11]; 125 g ai/ha): 40; Foxtail, Giant plant response rating ([12]; 31 g ai/ha): 0; Foxtail, Giant plant response rating ([12]; 125 g ai/ha): 10; Kochia plant response rating ([13]; 31 g ai/ha): 20; Kochia plant response rating ([13]; 125 g ai/ha): 40; Pigweed plant response rating ([14]; 31 g ai/ha): 20; Pigweed plant response rating ([14]; 125 g ai/ha): 50; Ragweed plant response rating ([15]; 31 g ai/ha): 0; Ragweed plant response rating ([15]; 125 g ai/ha): 0; Wheat plant response rating ([16]; 31 g ai/ha): 0; Wheat plant response rating ([16]; 125 g ai/ha): 0; Plant response rating, Barnyardgrass [17]: 0; Plant response rating, Ducksalad [18]: 80; Plant response rating, Rice [19]: 0; Plant response rating, Sedge, Umbrella [20]: 60
N#Cc1cccc(Oc2ncc(Cl)cn2)c1C(=O)CCCCC(F)(F)F [Compound 109]	0	0	0	0	40	0	0	0	60	0	0	0	0	0	0	0	0	10	20	0	Barnyardgrass plant response rating [2, 22]: 20; Galium plant response rating ([11]; 125 g ai/ha): 30; Foxtail, Giant plant response rating ([12]; 31 g ai/ha): 0; Foxtail, Giant plant response rating ([12]; 125 g ai/ha): 0; Kochia plant response rating ([13]; 31 g ai/ha): 0; Kochia plant response rating ([13]; 125 g ai/ha): 20; Pigweed plant response rating ([14]; 31 g ai/ha): 20; Pigweed plant response rating ([14]; 125 g ai/ha): 60; Ragweed plant response rating ([15]; 31 g ai/ha): 0; Ragweed plant response rating ([15]; 125 g ai/ha): 20; Wheat plant response rating ([16]; 31 g ai/ha): 0; Wheat plant response rating ([16]; 125 g ai/ha): 0; Plant response rating, Barnyardgrass [17]: 0; Plant response rating, Ducksalad [18]: 0; Plant response rating, Rice [19]: 0; Plant response rating, Sedge, Umbrella [20]: 0
N#Cc1cccc(Oc2ncc(Cl)cn2)c1C(=O)CCC(F)(F)C(F)(F)F [Compound 111]	0	0	0	0	0	0	0	0	0	0	0	0	0	0	0	0	0	0	0	0	Plant response rating, Barnyardgrass [2, 22]: 0; Galium plant response rating ([11]; 125 g ai/ha): 0; Foxtail, Giant plant response rating ([12]; 31 g ai/ha): 0; Foxtail, Giant plant response rating ([12]; 125 g ai/ha): 0; Kochia plant response rating ([13]; 31 g ai/ha): 0; Kochia plant response rating ([13]; 125 g ai/ha): 0; Pigweed plant response rating ([14]; 31 g ai/ha): 0; Pigweed plant response rating ([14]; 125 g ai/ha): 0; Ragweed plant response rating ([15]; 31 g ai/ha): 0; Ragweed plant response rating ([15]; 125 g ai/ha): 0; Wheat plant response rating ([16]; 31 g ai/ha): 0; Wheat plant response rating ([16]; 125 g ai/ha): 0; Plant response rating, Barnyardgrass [17]: 0; Plant response rating, Ducksalad [18]: 0; Plant response rating, Rice [19]: 0; Plant response rating, Sedge, Umbrella [20]: 0
COc1cccc(Oc2ncc(Cl)cn2)c1C(=O)OCCC(F)(F)F [Compound 112]	10	0	0	0	70	0	50	60	100	0	0	0	0	0	10	0	30	0	0	60	Plant response rating, Barnyardgrass [2, 22]: 80; Galium plant response rating ([11]; 125 g ai/ha): 80; Foxtail, Giant plant response rating ([12]; 31 g ai/ha): 0; Foxtail, Giant plant response rating ([12]; 125 g ai/ha): 30; Kochia plant response rating ([13]; 31 g ai/ha): 0; Kochia plant response rating ([13]; 125 g ai/ha): 30; Pigweed plant response rating ([14]; 31 g ai/ha): 40; Pigweed plant response rating ([14]; 125 g ai/ha): 70; Ragweed plant response rating ([15]; 31 g ai/ha): 20; Ragweed plant response rating ([15]; 125 g ai/ha): 40; Wheat plant response rating ([16]; 31 g ai/ha): 0; Wheat plant response rating ([16]; 125 g ai/ha): 0; Plant response rating, Barnyardgrass [17]: 20; Plant response rating, Ducksalad [18]: 100; Plant response rating, Rice [19]: 40; Plant response rating, Sedge, Umbrella [20]: 100

— patent publication US11053204B2, “Pyrimidinyloxy benzene derivatives as herbicides” (FMC Corporation, priority 2015, dated 2021)
